In the data set the test system is Daudi tumor cell line. Description: Cytotoxicity testing against Daudi cells (killing of 50% of the Daudi cells). The following applies: 5E9 conjugate versus free agents, conjugate MSR=8.9, read-out: CC50 (concentration of platinum compound which killed 50% of the Daudi cells). It is filed as cell-based.

On to “ammino[4-succinimidyl -(5-aminopentan-2-one) terephthalic hydrazone] tetrachloro platinum (IV) [AAtC]”, for which the CC50 was determined as 2100 nM.

For the origin of these results see patent US5547982A, “Anti-tumor platinum complexes” (priority 1995, dated 1996).
